Test results published in PMC12300679, “Taurine-Based Hybrid Drugs as Potential Anticancer Therapeutic Agents: In Vitro, In Vivo Evaluations” (Pharmaceuticals, 2025).

How the values were obtained:
[1] = test system: WI38 human fibroblast cell line; experiment: MTT cytotoxicity assay, normal WI38 cells; assay type: cell-based; settings: WI-38, tested at 1–200 µM, three independent experiments
[2] = test system: M-HeLa human cervix carcinoma cells; experiment: MTT cytotoxicity assay, M-HeLa; assay type: cell-based; settings: for IC50: Homo sapiens, M-HeLa, tested at 1–200 µM, three independent experiments; for IC50 / cytotoxicity against M-HeLa (in words): MTT; for SI (selectivity index) M-HeLa: M-HeLa versus normal WI38 cells
[3] = test system: HuTu 80 human duodenal adenocarcinoma cells; experiment: MTT cytotoxicity assay, HuTu 80; assay type: cell-based; settings: for IC50: Homo sapiens, HuTu80, MTT, tested at 1–200 µM, three independent experiments; for SI (selectivity index) HuTu 80: HuTu 80 versus normal WI38 cells
[4] = test system: RPMI 1788 human healthy donor peripheral blood leukocytes; experiment: MTT cytotoxicity assay, normal RPMI 1788 cells; assay type: cell-based; settings: tested at 1–200 µM, three independent experiments, read-out: IC50 RPMI 1788 (normal cell line)
lymphatic leukemia P388 = experiment: Antitumor activity, syngeneic lymphatic leukemia P388 in BDF1 mice; assay type: in vivo, mouse; settings: for ILS / MST ± SD: i.p. days 1, 5, 9
Method: At the next stage, we evaluated them in vivo using syngeneic mouse leukosis P388, which plays an important role in the screening of potential antitumor agents. The antitumor effect of the synthesized compounds was evaluated according to the increase in the average lifespan (ILS, %) of tumor-bearing animals. Due to the fact that physiologically relevant solvent, such as water or physiological solution [49], can be used as a solvent for parenteral administration of substances, we chose only water-soluble compounds 4o–r for the in vivo study.
As model tumors for the determination of antitumor activity of phosphorus-containing derivatives of pyrrolidine, the strain of lymphatic leukemia P388 was chosen. Lymphatic leukemia P388 was transplanted into hybrid mice of the BDF1 line intraperitoneally in accordance with the standard procedure. The inoculum contained 10^6 tumor cells in isotonic solution of NaCl. […] In each experiment, the control group was represented by the cohort of animals with tumors not treated with the compounds. Each group consisted of six mice. The animals were inspected daily over at least 60 days. The effectiveness of therapy was evaluated by the number of surviving animals, as well as by the increase in the average lifespan (ILS%), which was evaluated as the percentage of the mean survival time (MST) of the treated group (t) as compared to the control group (c): […].

[5] = test system: HL-60 human promyelocytic leukemia cells; experiment: MTT cytotoxicity assay, HL-60; assay type: cell-based; settings: for IC50: Homo sapiens, HL-60, MTT, tested at 1–200 µM, three independent experiments
[6] = dose 12 (table prints no unit; b71 mg/kg)
[7] = dose 17 (table prints no unit; b71 mg/kg)
[8] = dose 26 (table prints no unit; b71 mg/kg)
[9] = dose 37 (table prints no unit; b71 mg/kg)
[10] = dose 55 (table prints no unit; b71 mg/kg)

SMILES | IC50 [1] | IC50 [2] | SI (selectivity index) M-HeLa [2] | IC50 [3] | SI (selectivity index) HuTu 80 [3] | other results
O=c1[nH]cc(F)c(=O)[nH]1 [5-Fluorouracil, reference compound] | 62 ± 4.8 µM | 75.6 ± 6.1 µM | - ((-)—no selectivity) | 65.2 ± 5.5 µM | 1 | –
O=C1CCN(c2ccccc2)N1C1CCCN1S(=O)(=O)CCN1CCCCC1 (stereo not drawn) [Compound 4b, 1-Phenyl-2-(1-((2-(piperidin-1-yl)ethyl)sulfonyl)pyrrolidin-2-yl)pyrazolidin-3-one] | 88.3 ± 7.1 µM | 87 ± 6.8 µM | 1 | > 100 µM | - ((-)—no selectivity) | –
Nc1ncnc2c1ncn2CCS(=O)(=O)N1CCCC1N1C(=O)CCN1c1ccccc1 (stereo not drawn) [Compound 4c, 2-(1-((2-(6-Amino-9H-purin-9-yl)ethyl)sulfonyl)pyrrolidin-2-yl)-1-phenylpyrazolidin-3-one] | 100 µM | > 100 µM | - ((-)—no selectivity) | > 100 µM | - ((-)—no selectivity) | –
O=C(O)c1cn(C2CC2)c2cc(N3CCN(CCS(=O)(=O)N4CCCC4N4C(=O)CCN4c4ccccc4)CC3)c(F)cc2c1=O (stereo not drawn) [Compound 4l, 1-Cyclopropyl-6-fluoro-4-oxo-7-(4-(2-((2-(5-oxo-2-phenylpyrazolidin-1-yl)pyrrolidin-1-yl)sulfonyl)ethyl)piperazin-1-yl)-1,4-dihydroquinoline-3-carboxylic acid] | 154 ± 12 µM | 85.4 ± 7.5 µM | 1.8 | > 100 µM | – | cytotoxicity against M-HeLa (in words) [2]: moderate cytotoxicity
Cc1c(C2CCCN2S(=O)(=O)CCNCC(=O)O)c(=O)n(-c2ccccc2)n1C (stereo not drawn) [Compound 4m, (2-((2-(1,5-Dimethyl-3-oxo-2-phenyl-2,3-dihydro-1H-pyrazol-4-yl)pyrrolidin-1-yl)sulfonyl)ethyl)glycine] | > 100 µM | > 100 µM | – | 87 ± 7 µM | >1.1 | –
CCN(CC)CCS(=O)(=O)N1CCCC1P(=O)(c1ccccc1)c1ccccc1.Cl (stereo not drawn) [Compound 4o, 2-((2-(Diphenylphosphoryl)pyrrolidin-1-yl)sulfonyl)-N,N-diethylethanaminium chloride] | 84.3 ± 7.2 µM | 56.7 ± 4.8 µM | 1.5 | > 100 µM | - ((-)—no selectivity) | IC50 [4]: > 100 µM; ILS (lymphatic leukemia P388; [6]): 7%; MST ± SD (lymphatic leukemia P388; [6]): 10.7 ± 1.0 days; ILS (lymphatic leukemia P388; [7]): −5%; MST ± SD (lymphatic leukemia P388; [7]): 9.5 ± 0.8 days; ILS (lymphatic leukemia P388; [8]): 17%; MST ± SD (lymphatic leukemia P388; [8]): 11.7 ± 1.9 days; ILS (lymphatic leukemia P388; [9]): 7%; MST ± SD (lymphatic leukemia P388; [9]): 10.7 ± 0.9 days; ILS (lymphatic leukemia P388; [10]): 5%; MST ± SD (lymphatic leukemia P388; [10]): 10.5 ± 1.2 days; antileukemia / antitumor effect (in words) (lymphatic leukemia P388; doses under study, i.p.): did not display antitumor effect; cytotoxicity against M-HeLa (in words) [2]: moderate cytotoxicity; IC50 [5]: > 100 µM
Cl.O=P(c1ccccc1)(c1ccccc1)C1CCCN1S(=O)(=O)CCN1CCOCC1 (stereo not drawn) [Compound 4s, 4-(2-((2-(Diphenylphosphoryl)pyrrolidin-1-yl)sulfonyl)ethyl)morpholin-4-ium chloride] | 91.8 ± 8.4 µM | 78.4 ± 6.6 µM | 1.2 | > 100 µM | - ((-)—no selectivity) | IC50 [4]: > 100 µM; IC50 [5]: > 100 µM
Nc1ncnc2c1ncn2CCS(=O)(=O)N1CCCC1P(=O)(c1ccccc1)c1ccccc1 (stereo not drawn) [Compound 4u, (1-((2-(6-Amino-9H-purin-9-yl)ethyl)sulfonyl)pyrrolidin-2-yl)diphenylphosphine oxide] | > 100 µM | > 100 µM | – | > 100 µM | – | –
O=C(O)CNCCS(=O)(=O)N1CCCC1P(=O)(c1ccccc1)c1ccccc1 (stereo not drawn) [Compound 4v, 2-((2-((2-(Diphenylphosphoryl)pyrrolidin-1-yl)sulfonyl)ethyl)amino)acetic acid] | 211 ± 17 µM | 96.2 ± 8.4 µM | 2.2 | > 100 µM | – | –
O=C(O)[C@@H](NCCS(=O)(=O)N1CCCC1P(=O)(c1ccccc1)c1ccccc1)c1c[nH]c2ccccc12 (stereo partly drawn) [Compound 4x, (2S)-2-((2-((2-(Diphenylphosphoryl)pyrrolidin-1-yl)sulfonyl)ethyl)amino)-2-(1H-indol-3-yl)acetic acid] | 128 ± 10 µM | 98.2 ± 8.3 µM | 1.3 | > 100 µM | – | –
O=P(c1ccccc1)(c1ccccc1)C1CCCN1S(=O)(=O)CCNCCS(=O)(=O)O (stereo not drawn) [Compound 4y, 2-((2-((2-(Diphenylphosphoryl)pyrrolidin-1-yl)sulfonyl)ethyl)amino)ethane-1-sulfonic acid] | 120 ± 9.3 µM | 62.5 ± 5.3 µM | 1.9 | 100 ± 9.2 µM | 1.2 | cytotoxicity against M-HeLa (in words) [2]: moderate cytotoxicity
O=C(O)c1cn(C2CC2)c2cc(N3CCN(CCS(=O)(=O)N4CCCC4P(=O)(c4ccccc4)c4ccccc4)CC3)c(F)cc2c1=O (stereo not drawn) [Compound 4z, 1-Cyclopropyl-7-(4-(2-((2-(diphenylphosphoryl)pyrrolidin-1-yl)sulfonyl)ethyl)piperazin-1-yl)-6-fluoro-4-oxo-1,4-dihydroquinoline-3-carboxylic acid] | 123 ± 9.6 µM | 85.9 ± 8.2 µM | 1.4 | 64.6 ± 5.1 µM | 1.9 | –
COc1cccc2c1C(=O)c1c(O)c3c(c(O)c1C2=O)C[C@@](O)(C(=O)CO)C[C@@H]3O[C@H]1C[C@H](N)[C@H](O)[C@H](C)O1 [Doxorubicin, reference compound] | – | – | – | – | – | IC50 [4]: 3.3 ± 6.6 µM; SI (selectivity index) HL-60 ([5]; HL-60 versus normal RPMI 1788 leukocytes): 1.1; IC50 [5]: 3 ± 4.7 µM
